{"source": "paper PMC6977318", "about": "“In vitro and in situ study on characterization and mechanism of the intestinal absorption of 2,3,5,4′-tetrahydroxy-stilbene-2-O-β-D-glucoside” (BMC Pharmacology & Toxicology, 2020)", "key": {"Caco-2 cell monolayer": {"system": "Caco-2 cell monolayer", "assay": "Bidirectional transport across Caco-2 cell monolayer (Papp)", "type": "in vitro ADME", "method": "Then, the supernatant was analyzed by HPLC. […] The injected sample volume was 5 μL. TSG was detected at wavelength of 320 nm.\n(§1) (1): 1 Papp=dQ/dt×1/A×1/C0"}, "MRP2 [1]": {"target": "T1, MRP2 (Rattus norvegicus, UniProt Q63120)", "T1 construct": "from tissue; host or cells: rat small intestine, perfused in situ", "T1 sequence (Q63120 whole entry, the tested form may be a part)": "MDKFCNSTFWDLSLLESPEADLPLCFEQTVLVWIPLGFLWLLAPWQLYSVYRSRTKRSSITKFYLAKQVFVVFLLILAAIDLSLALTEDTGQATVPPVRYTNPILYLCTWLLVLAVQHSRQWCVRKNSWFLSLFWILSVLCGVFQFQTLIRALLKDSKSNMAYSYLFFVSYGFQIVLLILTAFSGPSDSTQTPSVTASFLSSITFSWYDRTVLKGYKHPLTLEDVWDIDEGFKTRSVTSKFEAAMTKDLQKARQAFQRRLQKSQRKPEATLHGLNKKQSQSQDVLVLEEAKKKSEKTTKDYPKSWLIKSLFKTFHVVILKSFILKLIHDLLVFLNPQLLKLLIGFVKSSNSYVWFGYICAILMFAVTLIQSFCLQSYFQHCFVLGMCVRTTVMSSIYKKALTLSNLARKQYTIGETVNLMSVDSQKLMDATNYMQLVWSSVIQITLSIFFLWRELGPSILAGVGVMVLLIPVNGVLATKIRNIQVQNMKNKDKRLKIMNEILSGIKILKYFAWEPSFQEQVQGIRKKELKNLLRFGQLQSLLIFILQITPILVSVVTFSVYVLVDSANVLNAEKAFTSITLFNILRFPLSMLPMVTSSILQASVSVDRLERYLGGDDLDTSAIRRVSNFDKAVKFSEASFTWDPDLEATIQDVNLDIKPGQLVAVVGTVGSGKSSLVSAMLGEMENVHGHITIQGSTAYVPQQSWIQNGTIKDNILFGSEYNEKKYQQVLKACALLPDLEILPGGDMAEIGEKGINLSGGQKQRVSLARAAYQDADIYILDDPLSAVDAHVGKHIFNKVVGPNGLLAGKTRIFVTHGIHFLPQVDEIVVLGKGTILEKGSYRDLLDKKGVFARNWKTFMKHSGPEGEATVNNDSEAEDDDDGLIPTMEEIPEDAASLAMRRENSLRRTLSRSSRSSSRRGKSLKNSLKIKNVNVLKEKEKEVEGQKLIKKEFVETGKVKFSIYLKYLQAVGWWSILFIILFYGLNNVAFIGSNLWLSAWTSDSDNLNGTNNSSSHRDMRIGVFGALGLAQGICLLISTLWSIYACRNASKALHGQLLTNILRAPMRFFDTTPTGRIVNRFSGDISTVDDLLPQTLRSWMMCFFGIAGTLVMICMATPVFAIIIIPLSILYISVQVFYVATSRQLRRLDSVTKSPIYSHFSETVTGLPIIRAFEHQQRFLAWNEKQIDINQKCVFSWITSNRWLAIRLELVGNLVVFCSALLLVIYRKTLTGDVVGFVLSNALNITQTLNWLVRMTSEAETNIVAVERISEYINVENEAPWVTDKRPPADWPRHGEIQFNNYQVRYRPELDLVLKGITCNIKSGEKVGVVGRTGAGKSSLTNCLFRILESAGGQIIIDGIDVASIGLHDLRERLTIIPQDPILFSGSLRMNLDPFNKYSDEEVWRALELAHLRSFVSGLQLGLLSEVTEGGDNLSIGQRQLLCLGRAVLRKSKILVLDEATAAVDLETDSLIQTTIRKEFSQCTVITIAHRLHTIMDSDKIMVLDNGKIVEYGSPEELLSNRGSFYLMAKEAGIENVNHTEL", "assay": "Effect of MRP2 inhibitor on intestinal absorption of TSG, in situ perfusion", "type": "in vivo", "method": "The perfusion was started with inhibitor solution at a flow rate of 2 mL·min^− 1, and after 30 min, it was replaced with TSG solution to investigate the influences of efflux proteins on TSG.\n(§2) 1 mL sample was mixed with equal amount of methanol, filtered through a membrane filter (0.45 μm pore size), and centrifuged at 12000 r·min^− 1 for 10 min. […] The mobile phase consisted of (A) 0.1% formic acid water and (B) acetonitrile. The gradient elution was set as: linear gradient elution 20–35% B (0-15 min) with a flow rate of 1 mL·min^− 1. The injected sample volume was 5 μL. TSG was detected at wavelength of 320 nm and phenol red was detected at wavelength of 430 nm. The concentration of phenol red was used to correct the volume of intestinal circulating fluid. The concentration of TSG and the volume of intestinal circulating fluid in each time period was used to calculate the residual drug amount (X). With the sampling time t as independent variable and lnX as dependent variable, the absorption rate constant Ka was determined from the slope of the straight line. The drug absorption percentage were calculated by the ratio of the change value of the remaining dose of t (h) to the amount of the remaining drug at time 0.\n(§3) The absorption rate constants (Ka) and percentage of absorption (PA, %) were calculated using the following eqs. (3), (4), respectively.\n(§4) Where X was the residual drug amount, C0 was the drug concentration of intestinal circulation liquid at 0 min, V0 was the drug volume of intestinal circulation liquid at 0 min, Ct was the drug concentration of intestinal circulation liquid at t min, Vt was the drug volume of intestinal circulation liquid at t min, t was the perfusion time."}, "P-gp": {"system": "P-gp", "assay": "Western blotting, expression of P-gp in Caco-2 cells after TSG", "type": "cell-based", "conditions": "TSG 10, 30 and 60 μg·mL^− 1, 4 h; significant at 60 μg·mL^− 1 (p < 0.05)", "method": "(§5) When Caco-2 cells grew to 80–90%, the cell were treated with different concentrations (10, 30 and 60 μg·mL^− 1) of TSG and blank medium solution (blank control group). […] The concentration of total proteins was detected by BCA kit, and the supernatant were mix with SDS-PAGE sample buffer after protein quantification, denatured on a heater for 5 min and stored.\n(§6) The total proteins were electrophoresed in 10% SDS-PAGE gel and then transferred to PVDF membranes by wet process to block with 5% skim milk for 2 h at room temperature. Membranes were incubated overnight with the following primary antibodies Anti-P glycoprotein antibody (1:2000), Anti-MRP2 antibody (1:500), and GAPDH polyclonal antibody. After that, the membranes were washed with 0.1% TBST for 3 times and 10 min each time and incubated with corresponding secondary antibody (1:5000) for 1 h at room temperature. The OD density values of bands were analyzed using gel imaging and analysis system."}, "[2]": {"assay": "MTT cytotoxicity of TSG for Caco-2 cells", "type": "cell-based", "conditions": "human; Caco-2 cells, 60 μg·mL^− 1 TSG, 5 h, MTT; read-out: cell viability", "method": "(§7) MTT assay was firstly used to investigate the effect of TSG with different concentrations on Caco-2 cells vitality. Briefly, Caco-2 cells were seeded in 96-wells plates at a density of 1 × 10^4 cells per well and placed in a 5% carbon dioxide incubator. After 48 h incubation, the cells were treated with increasing concentrations of TSG (0.75–240 μg·mL^− 1) and DMEM (containing 1%FBS) as a negative control. After 5 h of incubation, 20 μL of 5 mg·mL^− 1 MTT was added to each well, and the plate was incubated at 37 °C for 4 h. Then 150 μL of DMSO was added to each well after the supernatant was discarded. Absorbance was measured at a wavelength of 570 nm."}, "Caco-2 cells": {"system": "Caco-2 cells", "assay": "MTT cytotoxicity of TSG for Caco-2 cells", "type": "cell-based", "method": "as §7"}, "MRP2 [3]": {"system": "MRP2", "assay": "Western blotting, expression of MRP2 in Caco-2 cells after TSG", "type": "cell-based", "conditions": "TSG 10, 30 and 60 μg·mL^− 1, 4 h; significant at 30 and 60 μg·mL^− 1 (p < 0.05)", "method": "as §5, §6"}, "[4]": {"set-up": "method as in PMID 23371758", "conditions": "rats plasma, two-compartment model; cited from earlier work"}, "[5]": {"assay": "In situ single-pass intestinal perfusion of TSG in rats (Ka, PA)", "type": "in vivo, rat", "method": "The proper amount of TSG was accurately weighed, and the intestinal circulation liquid with a concentration of 10, 30 and 60 μg·mL^− 1 was prepared by using a blank intestinal circulation solution.\n24 SD rats, half male and half female, were fasted for 12 h but permitted to drink water freely before surgery. Rats were anesthetized by intraperitoneal injection of 25% urethane ([…]) and placed in a supine position on the operating table. The abdominal cavity was opened along the midline of the abdomen, then the incision was made at the duodenum and the ileum. The polyethylene tubes were carefully inserted at both sides of the segment and ligatured with a sterile surgical line. The contents of the intestines were slowly rinsed with 0.9% saline, prewarmed at 37 °C, and the residual liquid in the intestine was drained with air. Afterward, the wound in the abdomen of the rats was covered with a gauze soaked with 37 °C 0.9% saline buffer to moisturize after the operation, warmed with infrared lamp. The intestinal was equilibrated with a drug-containing perfusate (the concentration of TSG was 10, 30 and 60 μg·mL^− 1 respectively) which was preheated at 37 °C at a flow rate of 5 mL·min^− 1. Samples were collected in EP tubes after 10 min, and blank intestinal circulation solution (1 mL) was quickly added to circulatory solution. After that, the flow rate was adjusted to 2 mL·min^− 1, and the samples were taken at 10 min intervals for 4 h. In addition, in order to study the effects of different pH on intestinal absorption of TSG, the pH of the blank intestinal circulation solution was adjusted to 5.4 and 6.4, respectively. Finally, the experimental animals were euthanized by the method of rapid decapitation when the experiment was over. The procedures and precautions for sacrifice were the same as previously described.\nas §2, §3, §4"}, "[6]": {"assay": "In situ gastric perfusion of TSG in rats", "type": "in vivo", "conditions": "rat", "method": "According to the Chinese Pharmacopoeia, the artificial gastric juice without pepsin is configured under the time limit inspection method of disintegration.\nThe appropriate amount of TSG was accurately weighed, and the gastric perfusate was prepared at a concentration of 10, 30 and 60 μg·mL^− 1 using artificial gastric juice.\n24 SD rats, half male and half female, were fasted for 12 h but permitted to drink water freely before surgery. Rats were anesthetized by intraperitoneal injection of 25% urethane ([…]) and placed in a supine position on the operating table. The abdominal cavity was opened along the midline of the abdomen, then the incision was made at the duodenum and the ileum. The polyethylene tubes were carefully inserted at both sides of the segment and ligatured with a sterile surgical line. […]\n1 mL sample was mixed with equal amount of methanol, filtered through a membrane filter (0.45 μm pore size), and centrifuged at 12000 r·min^− 1 for 10 min. […] TSG was detected at wavelength of 320 nm and phenol red was detected at wavelength of 430 nm. […] With the sampling time t as independent variable and lnX as dependent variable, the absorption rate constant Ka was determined from the slope of the straight line. The drug absorption percentage were calculated by the ratio of the change value of the remaining dose of t (h) to the amount of the remaining drug at time 0."}, "MRP2 [7]": {"system": "MRP2", "assay": "Effect of MRP2 inhibitor on TSG transport across Caco-2 cell monolayer", "type": "in vitro ADME", "method": "The effect of efflux protein inhibitors on the intestinal absorption of TSG was studied based on Caco-2 cell monolayer model. […] Before the administration, the inhibitor was added to AP side and BL side, and the plate was placed in an incubator. After 30 min, the inhibitor solution was replaced with TSG solution at concentration of 30 μg·mL^− 1 to inspect the effect of efflux proteins on TSG.\nThen, the supernatant was analyzed by HPLC. HPLC separation was performed on Eclipse Plus C18 column (4.6 mm × 250 mm, 5 μm) at 30 °C. The mobile phase consisted of acetonitrile and 0.1% formic acid water (25:75) and the velocity of flow is 1 mL·min^− 1. The injected sample volume was 5 μL. TSG was detected at wavelength of 320 nm.\nas §1"}, "[8]": {"conditions": "inhibitor 5 μg·mL^− 1, TSG 30 μg·mL^− 1, compared with TSG alone"}, "[9]": {"conditions": "inhibitor 25 μg·mL^− 1, TSG 30 μg·mL^− 1, compared with TSG alone"}, "[10]": {"conditions": "inhibitor 25 μg·mL^− 1, p < 0.05, rat"}}}
{"smiles": "OC[C@H]1O[C@@H](Oc2c(O)cc(O)cc2/C=C/c2ccc(O)cc2)[C@H](O)[C@@H](O)[C@@H]1O", "note": "[TSG, 2,3,5,4′-tetrahydroxystilbene-2-O-β-D-glucoside]", "values": [{"measurement": "bilateral (AP-BL and BL-AP) Papp versus concentration", "setting": "Caco-2 cell monolayer; 10, 30 and 60 μg·mL^− 1", "result": "decreased substantially with increasing concentration"}, {"measurement": "absorption class from Papp", "setting": "Caco-2 cell monolayer; Caco-2 cell monolayer", "result": "moderately absorbed drug"}, {"measurement": "Papp values of bidirectional transport versus pH", "setting": "Caco-2 cell monolayer; TSG 30 μg·mL^− 1, pH 7.4, 6.4, 5.4", "result": "increased significantly with the decrease of pH value"}, {"measurement": "time at which bilateral Papp values reached the maximum", "setting": "Caco-2 cell monolayer; after administration, 10, 30 and 60 μg·mL^− 1", "result": 1, "unit": "h"}, {"measurement": "substrate of efflux protein MRP2", "setting": "MRP2 [1]; conclusion from in situ transport data", "result": "may be the substrate"}, {"measurement": "expression of P-gp in Caco-2 cells", "setting": "P-gp", "result": "increased with concentration"}, {"measurement": "viability at 5 h, 60 μg·mL^-1", "setting": "[2]", "result": "> 90", "unit": "%"}, {"measurement": "cell viability", "setting": "Caco-2 cells; Caco-2 cells, TSG more than 60 μg·mL^− 1, MTT", "result": "significantly decreased"}, {"measurement": "toxicity on Caco-2 cells", "setting": "Caco-2 cells; TSG 0.75–60 μg·mL^− 1, MTT", "result": "basically no toxicity"}, {"measurement": "expression of MRP2 in cells", "setting": "MRP2 [3]", "result": "decreased"}, {"measurement": "absorption half-life (t1/2Ka)", "setting": "[4]", "result": 14.80, "unit": "min"}, {"measurement": "maximal concentration (Cmax)", "setting": "[4]", "result": 5.70, "unit": "μg·mL^− 1"}, {"measurement": "absorption rate in the intestine", "setting": "[5]; in situ perfusion, rat", "result": "lower than 20%"}, {"measurement": "Ka between pH 6.4 and 7.4", "setting": "[5]; rat intestinal perfusion, p < 0.01", "result": "significant increase"}, {"measurement": "PA value of pH 7.4 versus pH 6.4 and 5.4", "setting": "[5]; rat intestinal perfusion, p < 0.05", "result": "significantly different"}, {"measurement": "absorption rate constant (Ka) at 10 μg·mL^− 1 versus 30 and 60 μg·mL^− 1", "setting": "[5]; rat small intestine, p < 0.05", "result": "significantly greater"}, {"measurement": "percentage of absorption (PA) at 10 μg·mL^− 1 versus 30 and 60 μg·mL^− 1", "setting": "[5]; rat small intestine, p < 0.05", "result": "significantly greater"}, {"measurement": "absorption in stomach", "setting": "[6]; TSG 10, 30 and 60 μg·mL^− 1", "result": "well absorbed"}, {"measurement": "absorption in stomach versus concentration", "setting": "[6]; TSG 10, 30 and 60 μg·mL^− 1, p < 0.05", "result": "increased significantly with concentration"}]}
{"smiles": "CCCN(CCC)S(=O)(=O)c1ccc(C(=O)O)cc1", "note": "[probenecid]", "values": [{"measurement": "increase of Papp values of TSG, AP-BL side", "setting": "MRP2 [7]; [8]", "result": "~2.22", "unit": "times"}, {"measurement": "increase of Papp values of TSG, BL-AP side", "setting": "MRP2 [7]; [8]", "result": "~1.82", "unit": "times"}, {"measurement": "increase of Papp values of TSG, AP-BL side", "setting": "MRP2 [7]; [9]", "result": "~3.02", "unit": "times"}, {"measurement": "increase of Papp values of TSG, BL-AP side", "setting": "MRP2 [7]; [9]", "result": "~1.91", "unit": "times"}, {"measurement": "Ka values of TSG in presence of inhibitor", "setting": "MRP2 [1]; [10]", "result": "significantly enhanced"}, {"measurement": "PA values of TSG in presence of inhibitor", "setting": "MRP2 [1]; [10]", "result": "significantly enhanced"}]}
